From ChEMBL document CHEMBL5604061, “ASAP - WNV NS2B-NS3 protease fluorescence dose response” (2024)
Values joined by “and” are separate entries in the source; they are usually repeats but may differ in a detail not shown here. Identical values can stand only once.

molecular target: T1, NS3 (West Nile virus, UniProt K4FQI5); experiment: Functional biochemical assay to identify treatments for viral infectious disease that targets West Nile NS2B-NS3 protease. Utilizing a direct enzyme activity measurement method, reading the fluorescence intensity is used to characterize the relative potency of inhibitors as IC50.; parameters: species or system NY-99
T1 sequence (K4FQI5 whole entry): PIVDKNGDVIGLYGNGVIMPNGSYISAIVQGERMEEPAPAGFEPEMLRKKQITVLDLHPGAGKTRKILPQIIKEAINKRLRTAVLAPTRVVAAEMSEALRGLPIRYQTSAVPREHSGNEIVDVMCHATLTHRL

Row | Compound | IC50
1 | CC(=O)Nc1cccc(C(=O)Nc2ccc3c(c2)CNC3)c1 | 30.6 µM
2 | COc1ccc(Cl)cc1[C@H](Nc1ccc2c(c1)CNC2)C(=O)NCC(F)F | 0.531 µM
3 | Nc1noc2cccc(C(=O)Nc3ccc4c(c3)CNC4)c12 | 76.8 µM
4 | O=C1Cc2cc(C(=O)Nc3ccc4c(c3)CNC4)ccc2N1 | 16.7 µM
5 | N=C(N)NCCc1ccc(NC(=O)Oc2ccccc2)cc1 | 72.1 µM
6 | O=C(Nc1ccc2c(c1)CN[C@H]2[C@H](O)CO)c1cc(F)cc2[nH]ncc12 | 6.73 µM
7 | O=C(Nc1ccc2c(c1)CNC2)c1cc(F)cc(C2=CCOCC2)c1 | 9.32 µM
8 | CO[C@H]1C[C@H](n2cc3c(C(=O)Nc4ccc5c(c4)CNC5)cc(Cl)cc3n2)C1 | 13.9 µM
9 | CCOCC1(c2nc3c(C(=O)Nc4ccc5c(c4)CNC5)cc(F)cc3[nH]2)CC1 | 9.95 µM
10 | O=C(Nc1ccc2c(c1)B(O)OC2)c1cccc(OCc2c(Cl)cccc2Cl)c1 | > 99.5 µM
11 | COc1cc(Cl)cc(C(=O)Nc2ccc3c(c2)CNC3)c1 | 40.7 µM
12 | O=C(Nc1ccc2c(c1)CNC2)c1cccc2sccc12 | 13.8 µM
13 | Nc1nc2c(Br)cc(C(=O)Nc3ccc4c(c3)CNC4)cc2s1 | > 99.5 µM
14 | O=C(Nc1ccc2c(c1)CN[C@H]2C[C@H](O)CO)c1cc(Cl)cc2[nH]ncc12 | 5.56 µM
15 | O=C(NCC(F)F)[C@H](Nc1ccc2c(c1)CNC2)c1cc(Br)cc2[nH]ccc12 | 0.556 µM
16 | O=C(Nc1ccc2c(c1)CNC2)c1cc(F)cc2nn(-c3ccccn3)nc12 | 7.11 µM
17 | O=C(Nc1ccc2c(c1)CNC2)c1cc(Cl)cc2[nH]c(COc3ccccn3)nc12 | > 99.5 µM
18 | O=C(Nc1ccc2c(c1)CNC2)c1cccc2c1[C@]1(CCN(C(=O)OCc3ccccc3)C1)C(=O)N2 | 3.55 µM
19 | O=C(Nc1ccc2c(c1)CNC2)c1cc(F)cc2[nH]c(-c3cnccc3O)nc12 | 9.93 µM
20 | O=C(Nc1ccc2c(c1)CCNCC2)c1cc(Cl)cc2[nH]ncc12 | 48.5 µM
21 | Cc1ncc(-c2cc(F)cc(C(=O)Nc3ccc4c(c3)CNC4)c2)o1 | 6.67 µM
22 | CCOC(=O)c1ncoc1CNC(=O)[C@H](Nc1ccc2c(c1)CNC2)c1cc(Cl)cc(C2CC2)c1 | 3.04 µM
23 | O=C(Nc1ccc2c(c1)CNC2)c1cc(F)cc(-c2cccnc2)c1 | 2.68 µM
24 | N#Cc1ccc(-c2nc3c(C(=O)Nc4ccc5c(c4)CNC5)cc(F)cc3[nH]2)cc1 | 2.91 µM
25 | NCCc1cc(Cl)cc(C(=O)Nc2cccc(CN)c2)c1 | 5.52 µM
26 | N#Cc1cc(Cl)cc([C@H](C#N)Nc2ccc3c(c2)CNC3)c1 | 98.5 µM

Row | Compound | IC50
27 | C=CC[C@H]1NCc2cc(NC(=O)c3cc(Cl)cc4[nH]ncc34)ccc21 | 14.1 µM
28 | CO[C@H](C)Cn1cc2c(C(=O)Nc3ccc4c(c3)CNC4)cc(Cl)cc2n1 | 19.8 µM
29 | O=C(Nc1ccc2c(c1)CNC2)c1cccc2[nH]ncc12 | 4.33 µM
30 | C[C@@H](Oc1ccc(S(=O)(=O)Nc2ccc(Cl)cc2C(=O)O)cc1)c1ccccc1F | 20.1 µM
31 | C=CC[C@H](Nc1cc(Cl)cc(NC(=O)OCc2ccccc2)c1)c1cccc(-c2nn[nH]n2)c1 | 14.4 µM
32 | O=C(Nc1ccc2c(c1)CNC2)c1cc(Cl)cc2c1cnn2C[C@H]1CCCO1 | 6.08 µM
33 | Cn1nccc1-c1cc(NC(=O)c2cc(F)cc3[nH]ncc23)cc2c1CNC2 | 1.43 µM
34 | O=C1Cc2c(cc(F)cc2C(=O)Nc2ccc3c(c2)CNC3)N1 | 0.537 µM and 0.576 µM
35 | O=C(Nc1cc(Cl)cc(C(=O)Nc2cccc(-n3nn[nH]c3=O)c2)c1)OCc1ccccc1 | 32.9 µM
36 | COCc1cc(Cl)cc(C(=O)Nc2ccc3c(c2)CNC3)c1 | 73.2 µM
37 | O=C(Nc1ccc2c(c1)CNC2)c1cc(F)c2[nH]ccc2c1 | 20.1 µM
38 | O=C(Nc1ccc2c(c1)CNC2)c1cc(Cl)cc2[nH]c(C3(n4ccnn4)CC3)nc12 | > 99.5 µM
39 | O=C(Nc1ccc2c(c1)CNC2)c1cc(Br)cc2[nH]c(=O)[nH]c12 | 4.67 µM
40 | O=C(NCCCn1ccnc1)[C@H](Nc1ccc2c(c1)CNC2)c1cc(Cl)cc(C2CC2)c1 | 0.839 µM
41 | CNC(=O)c1cccc(C(=O)Nc2ccc3c(c2)CNC3)c1 | 36.8 µM
42 | O=C(Nc1ccc2c(c1)CNC2)c1cc(F)cc(-c2ccc3c(=O)[nH]ncc3c2)c1 | 5.15 µM
43 | COc1cc(C#N)cc([C@H](Nc2ccc3c(c2)CNC3)C(=O)NCC(F)F)c1 | 0.243 µM
44 | CC(C)c1nnc(-c2nc3c(C(=O)Nc4ccc5c(c4)CNC5)cc(F)cc3[nH]2)s1 | 11.8 µM
45 | N=C(N)NCCc1ccccc1B(O)O | > 100 µM
46 | N#C[C@H](Nc1cccc(-c2nn[nH]n2)c1)c1cc(Cl)cc(NC(=O)OCc2ccccc2)c1 | 28.7 µM
47 | Nc1cc(Cl)cc(C(=O)Nc2ccc3c(c2)CNC3)c1N | 33.3 µM
48 | NCc1ccc(-c2ncc(OCC3CCNCC3)nc2-c2ccc(-c3ccoc3)cc2)cc1 | 98.4 µM
49 | O=C(Nc1ccc2c(c1)CNC2)c1cc(Cl)cc(-n2cccc2)c1 | 12.9 µM
50 | CC(C)NC(=O)[C@H](Nc1ccc2c(c1)CNC2)c1cccc2cn[nH]c12 | 14.1 µM
51 | O=C(Nc1ccc2c(c1)CNC2)c1cc(F)cc(C2=CCCOC2)c1 | 9.61 µM
52 | Cc1cc(-c2cc(F)cc(C(=O)Nc3ccc4c(c3)CNC4)c2)[nH]n1 | 3.74 µM

Row | Compound | IC50
53 | O=C(NCC(F)F)[C@H](Nc1ccc2c(c1)CNC2)c1cc(Cl)cc2c1CCC2 | 0.42 µM
54 | CCc1cc2c(cc1NC(=O)c1cc(F)cc3[nH]ncc13)CNC2 | 1.59 µM
55 | CNC(=O)[C@H](Nc1cc(CN)cc(-c2nn[nH]n2)c1)c1cc(Cl)cc(C2CC2)c1 | 1 µM
56 | O=C(Nc1ccc2c(c1)CNC2)c1cc(Cl)ccc1-n1cncn1 | 42.7 µM
57 | O=C(Nc1ccc2c(c1)CNC2)c1cccc2cn[nH]c12 | 9.75 µM
58 | O=C1Cc2c(cccc2C(=O)Nc2ccc3c(c2)CNCCC3)N1 | 2.15 µM
59 | C#Cc1cc(Cl)cc(C(=O)Nc2ccc3c(c2)CNC3)c1 | 58.6 µM
60 | O=C(Nc1ccc2c(c1)CNC2)c1cc(Cl)cc2cn[nH]c12 | 7.83 µM
61 | Cn1cc2c(C(=O)Nc3ccc4c(c3)CNC4)cc(Cl)cc2n1 | 15.1 µM
62 | C=Cc1cc2c(cc1NC(=O)c1cc(F)cc3[nH]ncc13)CNC2 | 0.489 µM
63 | CC(C)(C)c1cc(Br)cc(C(=O)Nc2ccc3c(c2)CNC3)c1 | 88.2 µM
64 | O=C(Nc1ccc2c(c1)CNC2)c1cc(Cl)cc2nn(C3CCOCC3)cc12 | 14 µM
65 | Cc1ccccc1-c1nc2c(C(=O)Nc3ccc4c(c3)CNC4)cc(F)cc2[nH]1 | 8.51 µM
66 | NCc1cccc(NC(=O)C[C@H](NC(=O)OCc2ccccc2)c2ccc(OCc3ccccc3)c(Br)c2)c1 | 8.65 µM
67 | O=C(NCCC1CC1)[C@H](Nc1ccc2c(c1)CNC2)c1cc(Cl)cc(C2CC2)c1 | 0.698 µM
68 | O=C(Nc1ccc2c(c1)CNC2)c1cc(F)cc(C=C2CCS(=O)(=O)CC2)c1 | 14.5 µM
69 | O=C(NC[C@H]1CCCO1)[C@H](Nc1ccc2c(c1)CNC2)c1cc(Cl)cc(C2CC2)c1 | 0.498 µM
70 | O=C(Nc1ccc2c(c1)CNC2)c1cccc2[nH]c(=O)[nH]c12 | 1.47 µM
71 | CCNC(=O)Nc1cc(Cl)cc(C(=O)Nc2cc(C)cc(CN)c2)c1 | 19.8 µM
72 | N#Cc1cc(C(=O)Nc2ccc3c(c2)CNC3)cc(C(F)(F)F)c1 | 98.1 µM
73 | COc1ccc(-c2nc3c(C(=O)Nc4ccc5c(c4)CNC5)cc(F)cc3[nH]2)nn1 | 3.68 µM
74 | O=C(Nc1ccc2c(c1)CNC2)c1cc(F)c2[nH]c(=O)[nH]c2c1 | 18 µM
75 | O=C(NCC(F)(F)F)c1cc(Cl)c(F)cc1NS(=O)(=O)c1ccc(Oc2ccccc2Cl)cc1 | 9.32 µM
76 | CCNC(=O)Nc1cc(Cl)cc(C(=O)Nc2cccc(CN)c2)c1 | 21.6 µM
77 | O=C(NCC(F)F)[C@H](Nc1ccc2c(c1)CNC2)c1cc(F)cc2[nH]ncc12 | 0.247 µM
78 | O=C(Nc1ccc2c(c1)CNC2)c1cc(Cl)cc2ccncc12 | 9.68 µM

Row | Compound | IC50
79 | CC(C)c1cc(Br)cc(C(=O)Nc2ccc3c(c2)CNC3)c1 | 93.2 µM
80 | CCn1c(=O)c(N2C[C@H]3CCS(=O)(=O)[C@H]3C2)nc2ccccc21 | > 99.5 µM
81 | O=C(Nc1cc2c(c(-c3ccnnc3)c1)CNC2)c1cc(Cl)cc2[nH]ncc12 | 3.06 µM
82 | CC(C)NC(=O)[C@H](Nc1ccc2c(c1)CN(C)C2)c1cc(Cl)cc2[nH]ncc12 | 1.67 µM
83 | NCc1ccc(-c2ncc(OCC3CCNCC3)nc2-c2ccc(C3CCOCC3)cc2)cc1 | > 99.5 µM
84 | CCOc1cccc(-c2ccc(S(=O)(=O)Nc3ccc(Cl)cc3C(=O)O)cc2)c1 | 12.6 µM
85 | CCSc1ccc(Cl)cc1C(=O)Nc1ccc2c(c1)CNC2 | 81.6 µM
86 | O=C(Nc1ccc2c(c1)CNC2)c1cc(F)cc(-c2c[nH]c(=O)c(F)c2)c1 | 0.665 µM
87 | N[C@H]1Cc2ccc(NC(=O)c3cc(Cl)cc(NC(=O)OCc4ccccc4)c3)cc2C1 | 35.9 µM
88 | NCCc1ccc(NC(=O)c2cc(Cl)cc(NC(=O)OCc3ccccc3)c2)cc1 | 16 µM
89 | CNC(=O)[C@H](Nc1cc(Cl)cc2[nH]ncc12)c1ccc2c(c1)CNC2 | 88.4 µM
90 | O=C(Nc1ccc2c(c1)CNC2)c1cc(F)cc2[nH]c(-c3cccc(F)c3)nc12 | 7.29 µM
91 | O=C(NCC(F)F)[C@H](Nc1ccc2c(c1)CNC2)c1cc(F)cc2[nH]ccc12 | 0.768 µM
92 | C=CC[C@H]1NCc2cc(NC(=O)c3cc(F)cc4[nH]ncc34)ccc21 | 4.14 µM
93 | O=C(O)c1cc(Cl)c(F)cc1S(=O)(=O)Nc1ccc(Oc2ccccc2Cl)cc1 | 32.6 µM
94 | NCc1cccc([C@H]2C[C@@H]2c2cc(Cl)cc(NC(=O)OCc3ccccc3)c2)c1 | 18.8 µM
95 | NCc1cc(Cl)cc(C(=O)Nc2ccc3c(c2)CNC3)c1 | 9.96 µM
96 | O=C(NCc1ccc(F)cc1)[C@H](Nc1ccc2c(c1)CNC2)c1cc(Cl)cc2[nH]ncc12 | 1.08 µM
97 | NCc1cccc(CNC(=O)[C@H](NC(=O)OCc2ccccc2)c2ccc(OCc3ccccc3)cc2)c1 | 13.3 µM
98 | CNC(=O)[C@H](Nc1ccc2c(c1)CNC2)c1cc(Cl)cc2[nH]c(-c3ccccc3)nc12 | 0.281 µM
99 | NCCc1csc2cc(C(=O)Nc3ccc4c(c3)CNC4)ccc12 | 2.09 µM
100 | O=C(Nc1ccc2c(c1)CNC2)c1cc(Cl)cc2c1NCCC2 | > 99.5 µM
101 | Cn1cc(CNC(=O)[C@H](Nc2ccc3c(c2)CNC3)c2cc(Cl)cc(C3CC3)c2)cn1 | 1.07 µM
102 | Clc1cc([C@@H]2C[C@H]2c2cccc(C3CCNCC3)c2)c2cn[nH]c2c1 | 10.9 µM
